pIC50, pKi: −log10 of the molar value. Like-named read-outs stand apart in the source and are kept apart here. Each block holds one compound with its values, some of them ahead of it.
What was measured:
[1] = target: DNA-PK (Homo sapiens (Human), UniProt P78527); assay: DNA-PK assay (biochemical), flashplate 33P-ATP kinase assay
Protocol: A) DNA-PK Assay (Biochemical)
The kinase assay was carried out in streptavidin-coated […] microtitre flashplates. […] The reaction was stopped using 50 μl/well of 200 mM EDTA. After incubation for a further 30 min at room temperature, the liquid was removed. Each well was washed three times with 100 μl of 0.9% saline solution. A nonspecific reaction (blank value) was determined using 10 μM of an innate kinase inhibitor. The radioactivity measurement was carried out using a TopCount. IC50 values were calculated in RS1.

[2] = target: DNA-PK phosphorylation at serine 2056 (Homo sapiens (Human), UniProt P78527); assay: DNA-PK phosphorylation at serine 2056 (cellular), bleomycin-treated HCT116 cells, ELISA; type: cell-based; details: read-out: IC50 pDNA-PK
Protocol: HCT116 cells were cultivated at 37° C. and 10% CO2 in MEM alpha medium with 10% of foetal calf serum and 2 mM glutamine. The cells were detached from the base of the culture vessels with the aid of trypsin/EDTA, centrifuged off in centrifuge tubes, taken up in fresh medium, and the cell density was determined. 100,000 cells were sown in 1 ml of culture medium per cavity of a 24-well cell culture plate and cultivated overnight. Next day, 10 μM bleomycin (DNA intercalator and inductor of DNA double-strand breaks) and test substances in fresh culture medium were added to the cells, and these were cultivated for a further six hours. […] The 96-well ELISA plates were subsequently treated with a detection antibody (Abcam ab79444: total DNA-PK) and a streptavidin-HRP conjugate. The development of the enzymatic reaction was carried out with the aid of a chemiluminescent reagent, the chemiluminescence was measured with the aid of a Mithras LB940. The signals with the phospho-DNA-PK-specific antibody were standardised to the signal with the antibody against the total protein DNA-PKc. […] The DMSO control was used as blank.

[3] = target: Kv11.1 (hERG) (Homo sapiens (Human), UniProt Q12809); assay: Kv11.1 (hERG) ion channel activity (patch clamp assay), HEK293 cells transfected with hERG gene; details: patch clamp, HEK293 transfected with hERG gene
Chain of Kv11.1 (hERG) (Q12809 whole entry): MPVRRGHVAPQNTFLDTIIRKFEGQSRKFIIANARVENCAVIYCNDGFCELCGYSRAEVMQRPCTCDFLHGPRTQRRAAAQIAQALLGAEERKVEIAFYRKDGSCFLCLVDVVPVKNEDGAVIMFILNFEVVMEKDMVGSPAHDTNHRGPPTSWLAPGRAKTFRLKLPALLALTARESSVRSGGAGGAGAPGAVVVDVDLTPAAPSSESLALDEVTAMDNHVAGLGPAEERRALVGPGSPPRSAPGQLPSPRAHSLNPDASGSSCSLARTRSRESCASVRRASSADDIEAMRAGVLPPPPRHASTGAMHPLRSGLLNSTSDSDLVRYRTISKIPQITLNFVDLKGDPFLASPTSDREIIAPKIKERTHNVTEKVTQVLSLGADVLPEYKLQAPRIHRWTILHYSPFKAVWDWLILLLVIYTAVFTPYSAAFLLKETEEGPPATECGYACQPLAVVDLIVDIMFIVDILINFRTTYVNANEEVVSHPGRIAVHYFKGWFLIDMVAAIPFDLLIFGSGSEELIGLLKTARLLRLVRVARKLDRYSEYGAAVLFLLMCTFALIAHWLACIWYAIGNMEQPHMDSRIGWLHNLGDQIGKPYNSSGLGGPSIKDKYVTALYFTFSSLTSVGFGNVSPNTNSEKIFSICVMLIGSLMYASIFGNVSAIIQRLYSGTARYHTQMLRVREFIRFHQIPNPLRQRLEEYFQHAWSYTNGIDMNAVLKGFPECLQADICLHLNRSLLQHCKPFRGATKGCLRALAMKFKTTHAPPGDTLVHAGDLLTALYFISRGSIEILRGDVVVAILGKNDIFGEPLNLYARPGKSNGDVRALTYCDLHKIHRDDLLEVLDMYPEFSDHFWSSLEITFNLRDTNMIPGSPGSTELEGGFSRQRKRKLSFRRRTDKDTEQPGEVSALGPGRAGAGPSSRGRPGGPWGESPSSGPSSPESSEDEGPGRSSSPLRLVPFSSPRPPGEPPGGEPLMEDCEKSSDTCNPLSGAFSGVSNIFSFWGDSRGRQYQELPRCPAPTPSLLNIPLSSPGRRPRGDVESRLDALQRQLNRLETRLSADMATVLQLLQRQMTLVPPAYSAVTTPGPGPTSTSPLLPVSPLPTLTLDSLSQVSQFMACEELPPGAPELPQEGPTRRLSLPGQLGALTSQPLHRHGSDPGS

[4] = cellular, HCT116 cells, 10 μM bleomycin, six hours
[5] = cellular DNA-PK phosphorylation at serine 2056, HCT116

pIC50 ([1]; enzymatic, 5 μM ATP): > 8.52
pIC50 [2, 4]: > 6.30
SMILES: OC(c1cccnn1)c1cc(-c2ncnc3cc(N4CCOCC4)ccc23)c(F)cc1Cl (single isomer, unassigned) [Example 30, [2-Chloro-4-fluoro-5-(7-morpholin-4-yl-quinazolin-4-yl)phenyl]-pyridazin-3-ylmethanol]

pIC50 ([1]; enzymatic, 5 μM ATP): 8.15 to 8.52
pIC50 [2, 4]: 5.00 to 5.30
SMILES: COc1ccc(C(O)c2cc(-c3ncnc4cc(N5CCOCC5)sc34)c(F)cc2Cl)nn1 (single isomer, unassigned) [Example 127, [2-Chloro-4-fluoro-5-(6-morpholin-4-ylthieno[3,2-d}-pyrimidin-4-yl)-phenyl]-(6-methoxy-pyridazin-3-yl)-methanol]

SMILES: COc1ccc(C(O)c2cc(-c3ncnc4cc(N5CCOCC5)ccc34)c(F)cc2F)nn1 (single isomer, unassigned) [Example 129, [2,4-Difluoro-5-(7-morpholin-4-yl-quinazolin-4-yl)-phenyl]-(6-methoxy-pyridazin-3-yl)-methanol]
pKi ([3]; Ki [Kv1.11 hERG]): 4.60 to 4.82

SMILES: COc1ccc(C(O)c2cc(-c3ncnc4cc(N5CCOCC5)ccc34)c(F)cc2F)nn1 (single isomer, unassigned) [Example 130, [2,4-Difluoro-5-(7-morpholin-4-yl-quinazolin-4-yl)-phenyl]-(6-methoxy-pyridazin-3-yl)-methanol]
pKi ([3]; read-out: Ki [Kv1.11 hERG]): < 4.60

pIC50 ([1]; biochemical DNA-PK assay): 7.52 to 8.15
pIC50 [2, 5]: 5.00 to 5.30
SMILES: COc1nccnc1C(O)c1ccc(F)c(-c2ncnc3cc(N4CCOCC4)cc(F)c23)c1 (single isomer, unassigned) [Example 253, [4-Fluoro-3-(5-fluoro-7-morpholin-4-yl-quinazolin-4-yl)-phenyl]-(3-methoxy-pyrazin-2-yl)-methanol]

pIC50 ([1]; enzymatic, 5 μM ATP): > 8.52
pIC50 [2, 4]: 5.30 to 6.30
SMILES: Cc1nccnc1C(O)c1cc(-c2ncnc3cc(N4CCOCC4)ccc23)c(F)cc1F (stereo not drawn) [Example 85]

pIC50 ([2]; Table 5, HCT116 cells): 5.30 to 6.30
SMILES: OC(c1ccc(F)c(-c2ncnc3cc(N4CCOCC4)sc23)c1)c1nccs1 (stereo not drawn) [Example 146, [4-fluoro-3-(6-morpholin-4-ylthieno[3,2-d]pyrimidin-4-yl)phenyl]thiazol-2-ylmethanol]

pIC50 ([1]; Table 5): < 7.52
SMILES: CC(O)(c1cncc(-c2ncnc3cc(N4CCOCC4)ccc23)c1)c1nccs1 (stereo not drawn) [Example 151, 1-[5-(7-Morpholin-4-ylquinazolin-4-yl)-pyridin-3-yl]-1-thiazol-2-ylethanol]

pIC50 ([1]; Table 5): < 7.52
SMILES: CC(O)(c1cc(-c2ncnc3cc(N4CCOCC4)ccc23)ccn1)c1nccs1 (stereo not drawn) [Example 153, 1-[4-(7-Morpholin-4-ylquinazolin-4-yl)-pyridin-2-yl]-1-thiazol-2-ylethanol]

pIC50 ([1]; Table 5): < 7.52
SMILES: Cc1ccc(C(C)(O)c2nccs2)cc1-c1ncnc2cc(N3CCOCC3)ccc12 (stereo not drawn) [Example 155, 1-[4-methyl-3-(7-morpholin-4-yl-quinazolin-4-yl)-phenyl)-1-thiazol-2-ylethanol]

pIC50 ([1]; Table 5): < 7.52
SMILES: CC(O)(c1cc(-c2ncnc3cc(N4CCOCC4)ccc23)cs1)c1nccs1 (stereo not drawn) [Example 156, 1-[4-(7-Morpholin-4-ylquinazolin-4-yl)-thiophen-2-yl]-1-thiazol-2-ylethanol]

pIC50 ([1]; Table 5): < 7.52
SMILES: OC(c1ccc(-c2ncnc3cc(N4CCOCC4)ccc23)s1)c1nccs1 (stereo not drawn) [Example 160, [5-(7-Morpholin-4-ylquinazolin-4-yl)-thiophen-2-yl]-thiazol-2-yl-methanol]

pIC50 ([1]; Table 5): < 7.52
SMILES: CC(O)(c1nccs1)c1cccc(-c2ncnc3cc(N4CCOCC4)ccc23)c1F (stereo not drawn) [Example 162, 1-[2-Fluoro-3-(7-morpholin-4-yl-quinazolin-4-yl)-phenyl]-1-thiazol-2-ylethanol]

pIC50 ([1]; Table 5): < 7.52
SMILES: OC(c1csc(-c2ncnc3cc(N4CCOCC4)ccc23)c1)c1nccs1 (stereo not drawn) [Example 164, [5-(7-Morpholin-4-ylquinazolin-4-yl)-thiophen-3-yl]-thiazol-2-yl-methanol]

pIC50 ([1]; Table 5): 7.52 to 8.15
pIC50 ([2]; Table 5, HCT116 cells): 4.52 to 5.00
SMILES: OC(c1cc(F)cc(-c2ncnc3cc(N4CCOCC4)ccc23)c1)c1nccs1 (stereo not drawn) [Example 169, [3-Fluoro-5-(7-morpholin-4-yl-quinazolin-4-yl)-phenyl]thiazol-2-yl-methanol]

pIC50 ([1]; Table 5): 7.52 to 8.15
pIC50 ([2]; Table 5, HCT116 cells): 5.00 to 5.30
SMILES: OC(c1nccs1)c1cc(-c2ncnc3cc(N4CCOCC4)ccc23)ccc1F (stereo not drawn) [Example 170, [2-Fluoro-5-(7-morpholin-4-yl-quinazolin-4-yl)-phenyl]thiazol-2-yl-methanol]

pIC50 ([1]; Table 5): 7.52 to 8.15
pIC50 ([2]; Table 5, HCT116 cells): 4.52 to 5.00
SMILES: OC(c1cccc(-c2ncnc3cc(N4CCOCC4)ccc23)c1)(c1nccs1)C(F)(F)F (stereo not drawn) [Example 172, 2,2,2-Trifluoro-1-[3-(7-morpholin-4-yl-quinazolin-4-yl)-phenyl]-1-thiazol-2-ylethanol]

SMILES: c1nc(N2CCCCC2)c2scc(N3CCOCC3)c2n1 [Example 174, 7-Morpholin-4-yl-4-piperidin-1-yl-thieno[3,2-d}-pyrimidine]
pIC50 ([1]; Table 5): 7.52 to 8.15
pIC50 ([2]; Table 5, HCT116 cells): 4.52 to 5.00

pIC50 ([1]; Table 5): < 7.52
SMILES: COC(c1ccc(F)c(-c2ncnc3cc(N4CCOCC4)ccc23)c1)c1nccs1 (stereo not drawn) [Example 175, 4-[2-Fluoro-5-(methoxy-thiazol-2-ylmethyl)phenyl]-7-morpholin-4-yl-quinazoline]

pIC50 ([1]; Table 5): 7.52 to 8.15
SMILES: COC(c1ccc(F)c(-c2ncnc3cc(N4CCOCC4)ccc23)c1)c1nccs1 (stereo not drawn) [Example 176, 4-[2-Fluoro-5-(-methoxy-thiazol-2-ylmethyl)phenyl]-7-morpholin-4-yl-quinazoline]

pIC50 ([1]; Table 5): 7.52 to 8.15
pIC50 ([2]; Table 5, HCT116 cells): 5.00 to 5.30
SMILES: OC(c1cccc(-c2ncnc3cc(N4CCOCC4)sc23)c1)c1nccs1 (stereo not drawn) [Example 182, [3-(6-Morpholin-4-ylthieno[3,2-d}-pyrimidin-4-yl)-phenyl]thiazol-2-yl-methanol]

pIC50 ([1]; Table 5): 7.52 to 8.15
SMILES: OC(c1cncc(-c2ncnc3cc(N4CCOCC4)ccc23)c1)c1nccs1 (stereo not drawn) [Example 183, [5-(7-Morpholin-4-ylquinazolin-4-yl)-pyndin-3-yl]thiazol-2-ylmethanol]

pIC50 ([1]; Table 5): 7.52 to 8.15
SMILES: OC(c1cncc(-c2ncnc3cc(N4CCOCC4)ccc23)c1)c1nccs1 (stereo not drawn) [Example 184, [5-(7-Morpholin-4-ylquinazolin-4-yl)-pyridin-3-yl]thiazol-2-ylmethanol]

pIC50 ([1]; enzymatic, 5 μM ATP): > 8.52
pIC50 [2, 4]: 4.52 to 5.00
SMILES: OC(c1ccc(F)c(-c2ncnc3cc(N4CCOCC4)ccc23)c1)c1nccs1 (stereo not drawn) [Example 212, [4-Fluoro-3-(7-morpholin-4-yl-quinazolin-4-yl)-phenyl]thiazol-2-ylmethanol]

pIC50 ([1]; enzymatic, 5 μM ATP): > 8.52
pIC50 [2, 4]: 5.00 to 5.30
SMILES: OC(c1ccc(F)c(-c2ncnc3cc(N4CCOCC4)ccc23)c1)c1nccs1 (stereo not drawn) [Example 213, [4-Fluoro-3-(7-morpholin-4-yl-quinazolin-4-yl)-phenyl]thiazol-2-ylmethanol]

pIC50 [2, 5]: > 6.30
SMILES: COc1nccnc1C(O)c1cc(-c2ncnc3cc(N4CCOCC4)cc(F)c23)c(F)cc1Cl (stereo not drawn) [Example 250, [2-Chloro-4-fluoro-5-(5-fluoro-7-morpholin-4-yl-quinazolin-4-yl)-phenyl]-(3-methoxy-pyrazin-2-yl)-methanol]

pIC50 [2, 5]: > 6.30
SMILES: COc1nccnc1C(O)c1cc(-c2ncnc3cc(N4CCOCC4)cc(F)c23)c(F)cc1Cl (stereo not drawn) [Example 266, [2-Chloro-4-fluoro-5-(5-fluoro-7-morpholin-4-yl-quinazolin-4-yl)-phenyl]-(3-methoxy-pyrazin-2-yl)-methanol]

pIC50 ([1]; biochemical DNA-PK assay): 8.15 to 8.52
pIC50 [2, 5]: 5.00 to 5.30
SMILES: Cn1cnc2ncnc(C(O)c3cc(-c4ncnc5cc(N6CCOCC6)ccc45)c(F)cc3F)c21 (stereo not drawn) [Example 386, [2,4-Difluoro-5-(7-morpholin-4-yl-quinazolin-4-yl)-phenyl]-(7-methyl-7H-purin-6-yl)-methanol]

pIC50 ([1]; biochemical DNA-PK assay): 7.52 to 8.15
pIC50 [2, 5]: 5.30 to 6.30
SMILES: Cn1cnc2ncnc(C(O)c3cc(-c4ncnc5cc(N6CCOCC6)ccc45)c(F)cc3F)c21 (stereo not drawn) [Example 431, [2,4-Difluoro-5-(7-morpholin-4-yl-quinazolin-4-yl)-phenyl]-(7-methyl-7H-purin-6-yl)-methanol]

pIC50 ([1]; biochemical DNA-PK assay): 8.15 to 8.52
pIC50 [2, 5]: > 6.30
SMILES: OC(c1cc(-c2ncnc3cc(N4CCOCC4)ccc23)c(F)cc1F)c1ncnc2ccoc12 (stereo not drawn) [Example 445, [2,4-Difluoro-5-(7-morpholin-4-yl-quinazolin-4-yl)-phenyl]furo[3,2-d}-pyrimidin-4-yl-methanol]

pIC50 ([1]; biochemical DNA-PK assay): > 8.52
pIC50 [2, 5]: 5.30 to 6.30
SMILES: OC(c1cc(-c2ncnc3cc(N4CCOCC4)ccc23)c(F)cc1F)c1ncnc2ccoc12 (stereo not drawn) [Example 446, [2,4-Difluoro-5-(7-morpholin-4-yl-quinazolin-4-yl)-phenyl]furo[3,2-d}-pyrimidin-4-yl-methanol]

SMILES: OC(c1ccc(F)c(-c2ncnc3cc(N4CCOCC4)ccc23)c1)c1nccnc1I (stereo not drawn) [Example 462, [4-Fluoro-3-(7-morpholin-4-yl-quinazolin-4-yl)-phenyl]-(3-iodo-pyrazin-2-yl)-methanol]
pIC50 ([1]; biochemical DNA-PK assay): > 8.52
pIC50 [2, 5]: > 6.30

— patent publication US9732094B2, “Arylquinazolines” (Merck Patent GmbH, priority 2013, dated 2017)
